Test results published in PMC7038993 (Nucleic Acids Research, 2020).

Legend:
[1] = molecular target: Murine eukaryotic translation initiation factor 4E (eIF4E, residues 28–217); meIF4E (Mus musculus, UniProt P63073); test: time-synchronized fluorescence quenching titration; format: binding
[2] = molecular target: eIF4E (28-217) (Mus musculus (murine), UniProt P63073 28-217); test: fluorescence quenching titration
eIF4E (28-217), sequence (P63073 28-217): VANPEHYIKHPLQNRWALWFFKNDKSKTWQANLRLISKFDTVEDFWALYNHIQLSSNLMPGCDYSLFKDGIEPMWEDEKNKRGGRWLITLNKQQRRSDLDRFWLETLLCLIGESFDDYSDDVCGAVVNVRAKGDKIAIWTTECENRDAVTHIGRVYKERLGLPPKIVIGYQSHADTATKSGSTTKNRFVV

Murine eukaryotic translation initiation factor 4E (eIF4E, residues 28–217); meIF4E, sequence (P63073 28-217): as above

| Molecule | Kd [1] [nM] | Kd [2] [nM] |
| --- | --- | --- |
| C[n+]1cn([C@@H]2O[C@H](COP(=O)(O)OP(=O)(O)OP(=O)(O)OC[C@H]3O[C@@H](n4cnc5c(N)ncnc54)[C@H](O)[C@@H]3O)[C@@H](O)[C@H]2O)c2nc(N)[nH]c(=O)c21 [m^7GpppA] | 178 ± 4.3 | – |
| C[n+]1cn([C@@H]2O[C@H](COP(=O)(O)OP(=O)(O)OP(=O)(O)OC[C@H]3O[C@@H](n4cnc5c(N)ncnc54)[C@H](O)[C@@H]3OP(=O)(O)OC[C@H]3O[C@@H](n4cnc5c(=O)[nH]c(N)nc54)[C@H](O)[C@@H]3O)[C@@H](O)[C@H]2O)c2nc(N)[nH]c(=O)c21 [m^7GpppApG] | 26.6 ± 0.9 | – |
| C[n+]1cn([C@@H]2O[C@H](COP(=O)(O)OP(=O)(O)OP(=O)(O)OC[C@H]3O[C@@H](n4ccc(N)nc4=O)[C@H](O)[C@@H]3OP(=O)(O)OC[C@H]3O[C@@H](n4cnc5c(=O)[nH]c(N)nc54)[C@H](O)[C@@H]3O)[C@@H](O)[C@H]2O)c2nc(N)[nH]c(=O)c21 [m^7GpppCpG] | 25.1 ± 0.6 | – |
| C[n+]1cn([C@@H]2O[C@H](COP(=O)(O)OP(=O)(O)OP(=O)(O)OC[C@H]3O[C@@H](n4cnc5c(=O)[nH]c(N)nc54)[C@H](O)[C@@H]3OP(=O)(O)OC[C@H]3O[C@@H](n4cnc5c(=O)[nH]c(N)nc54)[C@H](O)[C@@H]3O)[C@@H](O)[C@H]2O)c2nc(N)[nH]c(=O)c21 [m^7GpppGpG] | 22.7 ± 0.9 | – |
| CNc1ncnc2c1ncn2[C@@H]1O[C@H](COP(=O)(O)OP(=O)(O)OP(=O)(O)OC[C@H]2O[C@@H](n3c[n+](C)c4c(=O)[nH]c(N)nc43)[C@H](O)[C@@H]2O)[C@@H](OP(=O)(O)OC[C@H]2O[C@@H](n3cnc4c(=O)[nH]c(N)nc43)[C@H](O)[C@@H]2O)[C@H]1OC [m^7Gppp^m6AmpG] | 32.8 ± 0.8 | – |
| CNc1ncnc2c1ncn2[C@@H]1O[C@H](COP(=O)(O)OP(=O)(O)OP(=O)(O)OC[C@H]2O[C@@H](n3c[n+](C)c4c(=O)[nH]c(N)nc43)[C@H](O)[C@@H]2O)[C@@H](OP(=O)(O)OC[C@H]2O[C@@H](n3cnc4c(=O)[nH]c(N)nc43)[C@H](O)[C@@H]2O)[C@H]1O [m^7Gppp^m6ApG] | 35.2 ± 0.8 | – |
| GAG (XNA, m7G1; 5'-5' triphosphate between G1 and A2; 2'-O-methyl A2) [m7GpppAmpG] | – | 45.6 ± 1.5 |
| GCG (XNA, m7G1; 5'-5' triphosphate between G1 and C2; 2'-O-methyl C2) [m7GpppCmpG] | – | 29.9 ± 0.7 |
| GGG (XNA, m7G1; 5'-5' triphosphate between G1 and G2; 2'-O-methyl G2) [m7GpppGmpG] | – | 22.8 ± 0.6 |
